Article PMC8577775, “Small molecule allosteric inhibitors of RORγt block Th17-dependent inflammation and associated gene expression in vivo” (PLoS ONE, 2021)

Key:
[1] = system: RORγt-dependent inflammation; experiment: RORγt/Th17-dependent inflammation in vivo, overall statement (acute and chronic settings); conditions: with IC50 coverage alone (same level of response)
[2] = system: MOG35-55-induced EAE in C57BL/6 mice; experiment: Experimental autoimmune encephalomyelitis (EAE) model; assay type: in vivo, mouse; conditions: for EAE clinical score (0-5): vehicle peak 3.08 ± 0.28
Description: EAE studies were conducted at Hooke Laboratories. WT female C57BL/6 mice (Taconic Labs) 9 weeks of age were inoculated on day 0 with MOG35-55 peptide (Hooke Kit™ MOG35-55/CFA Emulsion PTX) (EK-2110, Hooke Laboratories, Lawrence MA) followed by intraperitoneal (IP) injections of pertussis toxin at 2 and 24 hours. Mice were treated twice daily (BID, starting at day 1) per os (PO) with vehicle (0.5% MC/0.25% Tween80) or RORγt inhibitors at indicated doses. FTY720 (Gilenya) was dosed once daily (QD) at 3 mg/kg starting at day 1. EAE clinical scores were evaluated daily and scored from 0–5 according to Hooke Lab EAE scoring guidelines http://hookelabs.com/services/cro/eae/MouseEAEscoring.html. Mean clinical scores & body weight loss were assessed and statistical significance calculated by Wilcoxon’s non-parametric or 2-tailed Student’s t-test, respectively. All studies performed were approved in accordance with the Institutional Animal Care and Use Committee of Bristol Myers Squibb and complied according to Bristol Myers Squibb guidelines.

[3] = system: KP/C pancreatic tumors in C57Bl/6 mice; experiment: In vivo tumor growth suppression, KP/C mouse model
Description: Pancreatic tumor chunks from KP/C mice [20] on C57Bl/6 background were inoculated subcutaneously in the flank of syngeneic mice. […] Tumor volumes and body weight were measured twice each week.
To test whether inhibition of RORγt can lead to tumor growth inhibition we utilized the Kras^G12D/+/Trp53^null/Pdx1-cre (KP/C) mouse model of pancreatic cancer [20]. C57Bl/6 mice were inoculated in the flank with KP/C tumor chunks and enrolled in the study when the average tumor volume reached 200 mm^3. […] To evaluate target engagement, we examined changes in expression of a subset of potential RORγt target genes in tumor samples.

[4] = system: RORγt target genes in KP/C tumor samples; experiment: RORγt target gene expression in KP/C tumors (qPCR); assay type: in vivo, mouse
Description: For RNA isolation & gene expression, ears are collected on day 4 in RNAlater (Qiagen) and stored at 4°C until processed. Ears were homogenized using Procellys 24 homogenizer & hard tissue homogenizing beads (Bertin Instruments), 2 cycles of 30 seconds @ 6000 rpm in RLT lysis buffer according to manufacturer’s instructions. RNA was isolated using RNAeasy Plus MiniPrep columns (Qiagen) and cDNA generated using SuperScript VILO cDNA Synthesis kit (Invitrogen). Gene expression was quantified using TaqMan Fast Master Mix & and TaqMan FAM-MGB probe sets (Applied Biosystems): Gapdh, Mm99999915_g1, Il17a, Mm00439618_m1, Il17f, Mm00521423_m1, Il22, Mm01226722_g1 & Bclxl, Mm00437783_m1. QPCR reactions were run on QuantStudio 7 instrument. Relative quantification and fold changes were calculated using ddCT values against Gapdh and normalized to control-treated animals. For PDAC xenografts, RNA was isolated from tumor sections using Qiagen RNeasy kit (cat#74106), then cDNA was prepared using 2 μg of RNA and the high capacity RNA to cDNA kit (Applied Biosystems, cat#4387406) as per manufacturer’s instructions. Biomarker expression was determined using Taqman gene expression probes (S1 Table) and Universal master mix (ThermoFisher Scientific cat#4305719) with expression levels normalized to Gapdh. […]

PDAC PDO model T031P = experiment: In vitro organoid formation assay (CellTiter-Glo 3D); assay type: cell-based; conditions: Homo sapiens, T031P, treated 24 hr post-plating
Description: Patient derived organoids were established as previously described. Briefly, PDX tumor chunks were minced then enzymatically digested into single cells by using a tumor dissociation Kit (Miltenyi, Cat# 130-095-929). Mouse and human cells were separated through magnetic separation, and isolated tumor cells were cultured on Matrigel-coated dishes. Organoid cultures were maintained by growing on Matrigel in human complete maintenance media: Advanced DMEM/F12 media (Life Technology, Cat# 12634028), 10 mM HEPES (Life Technology, Cat# 15630–080), 1X Glutamax (Life Technology, Cat# 35050–061), 1X Antibiotic-Antimycotic (Life Technology, Cat# 15240–062), 10 mM Nicotinamide (Sigma-Aldrich, Cat# N0636-500G), 250 ng/mL R-Spondin-1 (Peprotech, Cat# 120–38), 100 ng/mL Noggin (Peprotech, Cat# 120-10C), 50 ng/mL EGF (Peprotech, Cat# AF-100-15), 100 ng/mL FGF10 (Peprotech, Cat# 100–26), […] (Sigma-Aldrich, Cat# G9020), 500 nM A83-01 (Sigma, Cat# SML0788), 20 μM Y-27632 (LC Laboratories, Cat# Y-5301), 1X B27 (Life Technology, Cat# 12587010), 10 ng/mL Wnt3a (R&D Systems, Cat# 5036-WN-010), 0.1% Methylcelluose (R&D Systems, Cat# HSC001) and Plasmocin (Invivogen, Cat# Ant-mpp) and were passaged every 10–14 days. Organoids were isolated from Matrigel (Corning, Cat# 08-774-406) in a cell recovery solution (Corning, Cat# CB-40253). Spheroid clusters were then dissociated into a single cell suspension with TrypLE (Gibco, Cat# 12605). […]
Organoids were isolated and dissociated as described above. Cell numbers were counted by trypan blue exclusion and 5000 cells per well were plated on the Matrigel coated and pre-warmed 96-well plates. […] 100 μl of CellTiter-Glo® 3D reagent (Promega cat# G9682) was added to each well after desired time points and luminescence signal measured after 30 minutes.
Supplementary file pone.0248034.s010.tif: S6 Fig Schematic of Patient-derived organoids (PDO) growth & formation assays. […] After the indicated treatment schedule organoid growth or formation was assessed by CTG assay. […]

Q: What does the source list for `O=C(O)[C@@H]1CCC(c2nn(C(=O)c3c(Cl)cccc3C(F)(F)F)c3cccc(F)c23)=C[C@H]1O` [Compound 3]?
A: inhibition of Th17-dependent responses [1]: ~ 45%; EAE clinical score (0-5) ([2]; 3 mg/kg BID PO): 2.79 ± 0.25; EAE clinical score (0-5) ([2]; 10 mg/kg BID PO): 2.32 ± 0.21; significant disease onset ([2]; 30 mg/kg BID PO, vehicle day 12): 15 days; EAE clinical score (0-5) ([2]; 30 mg/kg BID PO): 1.5 ± 0.27; body weight loss in EAE ([2]; maintained for the duration of study): significant reductions in body weight loss; tumor volume, combination with gemcitabine ([3]; Compound 3 30mg/kg BID plus gemcitabine vs gemcitabine): no additional benefit; tumor volume ([3]; single agent vs vehicle, 28 days of dosing): not statistically significant; Klf7 and Osmr expression in tumors ([4]; all treatment groups (alone or with gemcitabine)): decreased in all treatment groups; Msi2 expression in tumors ([4]; combination of Compound 3 and gemcitabine): significant decrease; IC50 (PDAC PDO model T031P; 120 hours): 30 µM; IC50 (PDAC PDO model T031P; 168 hours): 10 µM
